Data from a melting point compilation (Tetko et al.; mined from patent text by program, amines drawn as free bases though some values may be those of a salt).

Compound	melting point [°C]
O=c1ccccn1C1=CC(CF)(CF)Oc2ccc(C(F)(F)C(F)(F)F)cc21	137 to 138
O=C(Nc1ccccc1OCCCBr)c1cccc2[nH]ccc12	145
C/C(=C(\C#N)C(N)=S)N1CCCN(c2cccc(C)c2)CC1	144 to 148
O=C(O)c1cc(-c2ccc(OCc3ccccc3)cc2)nn1Cc1ccccc1	207 to 208
COC(=O)Cn1sc2ccccc2c1=O	89 to 91
CS(=O)(=O)Nc1ccc(Cl)c(F)c1	109 to 111
CCC[C@H]1CC[C@H](c2ccc(-c3ccccc3)c(F)c2)CC1	96.5 to 97.3
C#CCN1C[C@H](OC(C)=O)CC1=O	46.5 to 47.5
CC(C)N(C=Nc1ncc(I)c(Cl)n1)C(C)C	97 to 100
CC1OC(Cn2cncn2)(c2ccc(Cl)cc2Cl)CN1S(=O)(=O)c1ccc(C(F)(F)F)cc1 (centres undefined)	188 to 190
CC1(C)C(C)(C)C1(Cl)c1ccc2c(c1)OCO2	110 to 112
CCCCCCCCCCCCCCOc1ccc(C(=O)N(Cc2cccnc2)C(C)=O)cc1	46 to 48
CC(C)(C)c1cc(NC(=O)Nc2ccc(OCCN3CCOCC3)c3ccccc23)[nH]n1	206 to 207
NS(=O)(=O)c1sccc1C(F)=C(F)C(F)(F)F	108 to 111
Cc1cc2cc(OCCC#N)ccc2o1	73 to 76
NCCCCc1csc(-c2ccccn2)n1	119 to 121
Cc1noc(NS(=O)(=O)c2cccc(-c3ccccc3)c2)c1Cl	84 to 86
O=C(O)c1cn([C@@H]2C[C@@H]2F)c2c(Cl)c(Cl)ccc2c1=O	198 to 201
C(=C\c1nc(COc2ccc(CCCn3ccnc3)cn2)co1)/c1ccccc1	120 to 121
COc1ccc(CCN(C)CCC2CN(C)C(=S)c3cccnc3O2)cc1 (centres undefined)	75 to 78
COC(=O)c1sc2cc(CCl)ccc2c1C	128 to 129
CC1(N2C(=O)c3cccc([N+](=O)[O-])c3C2=O)C=CC(OC(F)(F)C(F)C(F)(F)F)=CC1 (centres undefined)	121

Compound	melting point [°C]
CCCCN(C(=O)NCCCCCCNC(=O)N(CCCC)C1CC(C)(CC)NC(C)(CC)C1C)C1CC(C)(CC)NC(C)(CC)C1C (centres undefined)	146
COc1ccccc1C1=NN(C(=O)c2cccnc2)CC1C (centres undefined)	124 to 125
CCNC(=O)Nc1c(C(=O)c2ccccc2)[nH]c2cc(Cl)ccc12	222 to 235
C=CCC1C(=O)N(c2ccccc2)N(c2ccccc2)C1=O	135 to 137
C=CCC(NC(=O)CC)C(=O)O (centres undefined)	96 to 98
O=C(NCCN(CCNC(=O)OCCO)c1nc(Cl)nc(N(CCNC(=O)OCCO)CCNC(=O)OCCO)n1)OCCO	174
O=Cc1ccc(-c2ncc(Cl)cn2)cc1	186
Cc1nc(-n2ccc(OCc3cccnc3)cc2=O)sc1C(=O)NCc1ccccc1	214 to 216
C=CCc1ccc(OCCC(C)C)c2c(=O)cc(C(=O)O)oc12	79 to 80
Cc1cc(NC(=O)C(C)(O)COc2cccc(C#N)c2)ccc1[N+](=O)[O-] (centres undefined)	107 to 110
Cc1ccc(-n2nc(C)c(NC(N)=S)c2C)cc1	240 to 241
CCNC(=O)c1ccc(C#CCc2ccc3c(c2)C(C)(C)CCC3(C)C)cc1	128 to 129
CC(=O)c1ccc(-c2cn3ccccc3n2)cc1	209 to 210
CC(C)(C)OC(=O)CONC(=O)c1ccc(C(=O)C(C)(C)C)cc1	87 to 88
Cc1c(O)c(=O)ccn1CC(C)C	170 to 171
CCOC(=O)C1=C(COCCNC(N)=S)NC(C)=C(C(=O)OC)C1c1ccccc1Cl (centres undefined)	204
Cc1ccc(C2=NN=C(c3ccccc3Cl)N(C)N2)cc1	152 to 154
CS(=O)(=O)c1ncc2n1-c1ccc(Cl)cc1C(c1ccccc1F)=[N+]([O-])C2	219 to 220
O=C(Nc1ccc2c(c1)nc1n2CCCC1)c1cc2cccnc2n1Cc1ccccc1	233 to 235
CSc1cc(S(F)(F)(F)(F)F)ccc1C#N	101 to 102
CCN1CC(C#CC2CC2)(C(F)(F)F)c2cc(Cl)ccc2NC1=O (centres undefined)	186 to 188
O=C1c2cccc(Br)c2C(=O)N1CCCCCn1cncn1	102 to 104

Compound	melting point [°C]
COC(=O)C(CCSC)N(C(=O)OC(C)(C)C)C(=O)c1ccc(N)c(OC)c1 (centres undefined)	163 to 165
CCc1cn(C2CC(OC(C)=O)C(CCC(=O)Cc3c(Cl)cccc3Cl)O2)c(=O)[nH]c1=O (centres undefined)	186
CCCCC(C)C(=O)C=P(c1ccccc1)(c1ccccc1)c1ccccc1 (centres undefined)	107 to 109
CCCc1sc(-c2ccccc2)nc1OC(=O)Nc1ccccc1	104 to 105
C=C(c1ccc(Cl)cc1)C1(n2ccnc2)CC1	94 to 95
NC1=C(c2cccc(C(F)(F)F)c2)C(=O)OC1	165
COC(=O)c1ccc(C2=NOC(c3cc(Cl)cc(Cl)c3)(C(F)(F)F)C2)c2ccccc12 (centres undefined)	137 to 138
O=C(C(=Cc1ccccc1)c1ccccc1)c1ccc(O)cc1	186 to 190
CC(CC1=Nc2cc(Cl)ccc2S(=O)(=O)N1)CC(C)(C)C (centres undefined)	243 to 244
CSN(C)C(=O)Nc1ccc(Cl)c(Cl)c1	93
Cc1ccc(Nc2c3ccccc3nc3c(C)cccc23)cc1NC(=O)Oc1ccc(N(CCCl)CCCl)cc1	154 to 156
CCCOc1ccc(F)cc1C(=O)C=CN(C)C	43 to 46
CCOC(=O)c1cc(C)c2nc(CC)[nH]c2n1	151 to 153
CC(C)C1NCC(=O)N1CC(N)=O (centres undefined)	64
CC(=NO)c1ccc(N2CCN(C(=O)CCCCCCC(=O)NO)CC2)cc1	147 to 148
ON=C1c2ncc(Cl)cc2C=CC1Cl (centres undefined)	202
COC(=O)c1cc(C(F)(F)F)cc(OCc2ccccc2)c1OCc1ccccc1	78 to 79
CCC(CN1CCCC1)C(=O)c1cc(-c2ccccc2)no1 (centres undefined)	68 to 69
CS(=O)(=O)c1ccccc1OCCF	67 to 69
CN(C=O)c1ccc(F)c(Cl)c1	47 to 48
O=C(O)CCOCc1ccccc1	35.2
COCCOc1ccc([N+](=O)[O-])cc1I	35 to 36

Second part, the compound after the results:

melting point [°C]	Compound
116 to 117	O=C(O)Cc1cc2c(cc1Cc1ccccc1)OCO2
130 to 132	Clc1ccc(-c2cc(Cl)nc(Cl)n2)cc1
109 to 111	Cc1ccc2c3c(c(=O)oc2c1)CN(Cc1ccccc1)CC3
62 to 70	Nc1ncccc1C(=O)NCC1CCN(C[C@H]2COc3cccc(Cl)c3O2)CC1
99 to 101	NC(=O)N(c1ccc(C(F)(F)F)cc1)c1nc(Cl)cc(Cl)n1
101 to 103	COC(=O)COc1ccc(C(C)=O)c(O)c1
130 to 131	Cn1cc(-c2cccc(C(F)(F)F)c2)c(=O)n1-c1cccc(Cl)c1
60.5 to 62	COCc1cc(C2=C(Cl)CCN(C(=O)c3ccccc3)C2)no1
124 to 125	COc1ccc(C(=O)c2ccc(OCc3ccccc3)cc2)c(O)c1
178 to 181	CCOCc1nc2c(N)nc3ccccc3c2n1CCOCCNC(=O)N1CCOCC1
201 to 203	O=C(O)COc1ccc(C(=O)c2ccccc2O)c(Cl)c1Cl
179 to 180	O=C(NCCCCCCCCNC(=O)c1ccc2c(c1)OCO2)c1ccc2c(c1)OCO2
> 300	CC(C)Cn1c(=O)[nH]c(=O)c2nc(-c3ccc(/C=C/C(=O)O)cc3)[nH]c21
241 to 243	COc1cc2nc(N)nc(-c3ccccc3Br)c2cc1OC
152 to 153	Cc1oc(-c2ccco2)nc1COc1ccc(CCCC2OC(=O)NC2=O)cc1O (centres undefined)
145 to 146	CNC(=O)c1ccccc1-c1nc(-c2ccccc2)no1
187 to 188	COc1cccc(NC(=O)c2cc(-c3ccc(F)cc3F)ccc2O)c1
189 to 190	CCC(=O)Nc1cc(-n2cccn2)nc(-c2ccc(Cl)o2)n1
68 to 69	C#CCCc1cc2ccc(C(=O)OC)cc2o1

melting point [°C]	Compound
238	Cc1cc(-c2ccc(C(F)(F)F)cc2)nc(-c2ccnc(-c3cccc(S(N)(=O)=O)c3)c2)c1
> 220	Oc1cc2c(cc1O)-c1cc3cc(O)c(O)cc3nc1CC2
229 to 231	COC(=O)c1cc(Cl)c(N=C2NCCN2)c(Cl)c1
195 to 197	CCCCc1oc2ccccc2c1C(=O)NCc1ccc2c(-c3ccc(C(C)(C)C)cc3)c(O)ccc2c1
251 to 252	CC(C)(C)c1ccc(-n2cc(C(=O)O)c(=O)c3ccc(-c4ccncc4)cc32)cc1
158 to 161	O=C(O)C(O)c1ccc2oc([N+](=O)[O-])c(-c3ccccc3)c2c1 (centres undefined)
164 to 166	CCOCc1nc2c(N)nc3c4c2n1[C@@H](C)CN4CCC3
258 to 261	Cc1c(-c2cc(C(C)(C)C)c(O)c(C(C)(C)C)c2)nc2n1CCS2
155 to 157	CC(C)CNC(=O)c1sc(Oc2ccc3c(c2)OCO3)c2c1CCc1cnn(C)c1-2
174 to 176	O=C1C(=O)c2ccccc2C2=C1SCC1(CCN(CC(O)COc3ccccc3)CC1)O2 (centres undefined)
257 to 259	CC(=O)Nc1cn2cc(Sc3ccccc3)ccc2n1
208 to 210	COc1ccc(N)c(OC)c1COc1cccc2ccc(C)nc12
260 to 261	CS(=O)C1=NS(=O)(=O)c2cc(Cl)ccc2N1 (centres undefined)
233 to 235	CC(=Nc1ccc2c(c1)C(=O)c1ccc(N=C(C)N3CCCCC3)cc1C2=O)N1CCCCC1
215 to 217	CN(C)CC=CC(=O)Nc1ccc2ncnc(Nc3cccc(Br)c3)c2c1
85 to 90	Cc1cccc(C2COc3cc(O)ccc3C2c2ccc(OCCN3CCCC3)cc2)c1 (centres undefined)
208 to 211	Cc1cc2c(-c3cn(C)c(C(F)(F)F)cc3=O)c(F)cc(Cl)c2o1
> 300	Cn1nnnc1-c1cnc2cc(Br)ccc2c1O
133 to 135	Cc1cc(Br)ccc1NC(=O)CC(=O)Sc1ccccc1
